Reference: US20220401414A1, “TREATMENT AND PREVENTION OF A NEURODEGENERATIVE DISORDER” (Inflazome Limited, priority 2019, published 2022)

Columns and labels:
[1] = system: IL-1β; test: Study H: IL-1β ELISA in plasma of PFF-Synuclein mice; type: in vivo, C57BL6 mice; conditions: 0.3 mg/ml drinking water, 12 months after PFF-Synuclein injections
Description: To determine the oral efficacy of the compound of formula (I) in a chronic progressive model of Parkinson's disease (PD), the preformed fibrils (PFF) mouse model, using a prophylactic and therapeutic dosing schedule.
8-week-old C57BL6 male mice (obtained from ARC, Perth, Australia) were housed under a 12-h light cycle in a SPF climate-controlled facility with food and water provided ad libitum for two weeks prior to study initiation. The compound of formula (I) (or water alone for control animals) was administrated to mice in drinking water at 0.3 mg/ml. Animals were separated into the groups described in Table 9, with ten animals initiated in each cohort. […]
Recombinant human a-synuclein was obtained from rPeptide Inc., and in vitro fibril generation was performed with a final concentration of 2 mg/ml in phosphate-buffered saline (PBS) by incubation at 37° C. with agitation in an orbital mixer (400 rpm) for 7 days with daily cycles of sonication used to break down fibrillar aggregates as outlined in previously published reports (see Luk et al., Science, 2012, vol. 338(6109), pp. 949-53; and Zhang et al., Methods Mol. Biol., 2019, vol. 1948, pp. 45-57, which are incorporated in their entirety herein by reference). The generation of fibrillar α-synuclein species was confirmed by transmission electron microscopy and Thioflavin T fluorescence prior to use. […]

[2] = Study B: blood-brain barrier penetration, striatal MetaQuant microdialysis in unilateral 6-OHDA lesioned mice after oral dosing; type: in vivo, C57B1/6 mice; conditions: 6-OHDA mice; for average peak levels in left and right striatal dialysate: MetaQuant dialysate, not corrected for recovery (recovery 61%); for time of average peak levels after compound administration: striatal dialysate
Method: The present study was designed to assess the free concentration of the compound of formula (I) in the left and right striatum of freely-moving adult male mice with a unilateral 6-hydroxydopamine (6-OHDA) lesion.
Adult male C57B1/6 mice (23-28 g; Envigo, the Netherlands) were used for the experiments. Following arrival, animals were housed in groups of 5 in polypropylene cages (40×50×20 cm) with wire mesh top in a temperature (22±2° C.) and humidity (55±15%) controlled environment on a 12 hour light cycle (07.00-19.00). Following surgery, animals were housed individually (cages 30×30×40 cm). Standard diet (SDS Diets, RM1 PL) and domestic quality mains water were available ad libitum.
Mice were anesthetized using isoflurane (2% and 500 mL/min O2). Before surgery, Finadyne (1 mg/kg, s.c.) was administered for analgesia during surgery and the post-surgical recovery period. A mixture of bupivacaine and epinephrine was used for local analgesia of the incision site.
The animals were placed in a stereotaxic frame (Kopf instruments, USA). 10 μg of 6-OHDA in 2 μL saline was slowly injected into the right striatum using a Hamilton needle (coordinates for the tip of the needle: AP=−0.5 mm (to bregma), ML=−2.0 mm (to midline), DV=-4.0 mm (to dura) with an angle of 0° and the incisor bar set at 0.0 mm.
In the same surgical procedure, guides for MetaQuant microdialysis probes with a 3 mm exposed polyacrylonitrile membrane (MQ-PAN 3/3) were implanted bilaterally into the left and right striatum (coordinates for the tip of the probe: AP=+0.8 mm (to bregma), ML=+/−1.7 mm (to midline), DV=−4.0 mm (to dura) with an angle of 0° and the incisor bar set at 0.0 mm. All coordinates were based on “The mouse brain in stereotaxic coordinates” by Paxinos and Franklin (2008). The probes were attached to the skull with a stainless-steel screw and dental cement.
The monosodium salt of the compound of formula (I) was formulated in sterilized tap water at concentrations of 0.2 and 4 mg/mL for oral dosing at 5 mL/kg; 1 mg/kg and 20 mg/kg, respectively.
After recovery from lesion and the guide surgery, on day 10, MetaQuant microdialysis probes were connected with flexible PEEK tubing (Western Analytical Products Inc. USA; PK005-020) to a microperfusion pump (Harvard) and perfused with a slow flow of artificial CSF (perfusate), containing 147 mM NaCl, 3.0 mM KCl, 1.2 mM CaCl2, and 1.2 mM MgCl2, at a flow rate of 0.12 μL/min and a carrier flow of UP+0.02 M FA+0.04% ascorbic acid at 0.8 μL/min. After a minimum of two hours of prestabilisation, microdialysis samples were collected in 60 minute intervals. […]
Levels of the compound of formula (I) in MetaQuant microdialysate samples were quantified by LC-MS/MS. […]

CC(C)n1ccc(S(=O)(=O)NC(=O)Nc2c3c(cc4c2CCC4)CCC3)n1 [compound of formula (I)]
circulating IL-1β in plasma compared with the PFF-Synuclein group ([1]; prophylactic treatment): significant decrease in circulating IL-1β | circulating IL-1β in plasma compared with the PFF-Synuclein group ([1]; therapeutic treatment): significant decrease in circulating IL-1β | average peak levels in left and right striatal dialysate ([2]; 1 mg/kg oral): 17 to 19 nM | time of average peak levels after compound administration ([2]; 1 mg/kg oral): 5 h | average peak levels in left and right striatal dialysate ([2]; 20 mg/kg oral): 280 to 300 nM | time of average peak levels after compound administration ([2]; 20 mg/kg oral): 6 h
